# Reference: ChEMBL document CHEMBL3880384, “2-Phenylquinoxalines as inhibitors for MPP1” (2006)
# Calls of active or inactive are those of the source. The calls are words filed in the database; no cut-off is given here.
# Molecular target: Kinesin-like protein KIF20B (Homo sapiens) (UniProt Q96Q89)
# Assay: Inhibition of MPP1 in human HeLaS3 cells assessed as induction of binucleate phenotype after 18 hrs
# Format: cell-based
# Settings: HeLa S3
# Chain of Kinesin-like protein KIF20B (Homo sapiens) (Q96Q89 whole entry): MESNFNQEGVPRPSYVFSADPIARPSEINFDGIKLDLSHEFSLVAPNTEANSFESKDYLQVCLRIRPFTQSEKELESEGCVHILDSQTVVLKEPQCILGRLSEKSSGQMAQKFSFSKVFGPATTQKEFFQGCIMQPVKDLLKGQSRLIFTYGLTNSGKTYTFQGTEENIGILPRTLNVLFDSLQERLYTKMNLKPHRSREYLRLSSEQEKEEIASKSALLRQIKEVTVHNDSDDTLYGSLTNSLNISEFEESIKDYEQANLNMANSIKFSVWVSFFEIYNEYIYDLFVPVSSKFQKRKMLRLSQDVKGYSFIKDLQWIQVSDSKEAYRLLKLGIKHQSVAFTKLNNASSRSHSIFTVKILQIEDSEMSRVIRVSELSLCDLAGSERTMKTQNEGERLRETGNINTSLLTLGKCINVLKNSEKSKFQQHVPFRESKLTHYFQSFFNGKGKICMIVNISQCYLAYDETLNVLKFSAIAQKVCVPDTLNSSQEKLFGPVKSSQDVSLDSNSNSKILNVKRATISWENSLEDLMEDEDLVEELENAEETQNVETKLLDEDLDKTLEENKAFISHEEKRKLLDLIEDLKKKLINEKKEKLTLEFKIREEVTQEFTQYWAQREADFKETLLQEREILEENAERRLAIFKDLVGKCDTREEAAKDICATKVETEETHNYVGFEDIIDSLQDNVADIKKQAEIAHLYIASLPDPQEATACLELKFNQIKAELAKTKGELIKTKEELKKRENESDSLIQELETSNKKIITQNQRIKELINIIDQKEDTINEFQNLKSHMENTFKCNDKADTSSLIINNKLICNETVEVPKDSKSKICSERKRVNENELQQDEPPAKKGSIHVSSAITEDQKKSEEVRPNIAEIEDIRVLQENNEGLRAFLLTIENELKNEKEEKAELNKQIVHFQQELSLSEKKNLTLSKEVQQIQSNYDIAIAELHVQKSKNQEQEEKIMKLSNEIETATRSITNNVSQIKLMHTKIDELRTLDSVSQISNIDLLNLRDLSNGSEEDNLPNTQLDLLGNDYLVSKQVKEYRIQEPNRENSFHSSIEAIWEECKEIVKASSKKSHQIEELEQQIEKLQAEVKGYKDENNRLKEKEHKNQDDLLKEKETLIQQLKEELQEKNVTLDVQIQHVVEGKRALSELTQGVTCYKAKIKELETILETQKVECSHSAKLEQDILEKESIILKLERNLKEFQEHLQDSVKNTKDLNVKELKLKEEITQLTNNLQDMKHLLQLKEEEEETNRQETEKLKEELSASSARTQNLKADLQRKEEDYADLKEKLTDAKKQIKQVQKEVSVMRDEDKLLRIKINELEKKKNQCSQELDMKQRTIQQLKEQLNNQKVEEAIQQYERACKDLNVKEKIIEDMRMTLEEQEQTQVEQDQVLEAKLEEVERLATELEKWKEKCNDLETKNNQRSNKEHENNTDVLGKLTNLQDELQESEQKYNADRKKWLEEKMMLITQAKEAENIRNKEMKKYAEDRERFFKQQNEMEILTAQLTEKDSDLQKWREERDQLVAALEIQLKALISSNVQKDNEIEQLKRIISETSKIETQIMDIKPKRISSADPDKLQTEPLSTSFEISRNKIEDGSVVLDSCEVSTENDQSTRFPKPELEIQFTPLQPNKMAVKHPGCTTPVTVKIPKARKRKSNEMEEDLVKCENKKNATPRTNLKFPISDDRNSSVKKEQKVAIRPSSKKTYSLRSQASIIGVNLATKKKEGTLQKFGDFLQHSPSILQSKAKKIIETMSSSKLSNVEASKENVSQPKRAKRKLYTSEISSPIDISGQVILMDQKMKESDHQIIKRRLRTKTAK
smiles,measurement,value
FC(F)(F)c1cc(Cl)c2ncc(-c3ccc(Cl)c(Cl)c3)nc2c1,inhibition,Active
